Assays:
β-glucuronidase (GUS) = target: T1, β-glucuronidase (GUS) (Escherichia coli, UniProt P05804); test: in vitro hydrolysis with β-glucuronidase, fluorimeter excitation and emission spectra; assay type: biochemical, E. coli
T1 construct: purchased Sigma Chemicals, St. Louis, Mo
Protocol: A fluorimetery cuvette was prepared by adding 3 μL of 0.5 mM 7CC-FDG in DMSO (Compound F), to 3 mL of 50 mM Hepes buffer, pH 7.0, with 1 mM each CaCl2 and MgSO4. Fluorescent excitation and emission spectra of the sample were recorded using a Jobin-Yvon-SPEX Instruments Fluormax-2 fluorimeter under the following conditions: excitation at 300-500 nm with emission recorded at 515 or 530 nm (FIG. 4, scan A and B respectively); excitation at 350 nm and emission recorded at 425-650 nm (FIG. 4, scan C); excitation at 406 nm and emission recorded at 425-530 nm (FIG. 4, scan D); and excitation at 488 nm with emission recorded at 500-650 nm (FIG. 4, scan E). […] The ratio computed is the emission at 450 nm when the exciting light was of 350 nm or 406 nm divided by the emission at 515 nm when the exciting light was of 488 nm.

[1] = tested on: orange peel acetylesterase (OPAE); test: in vitro hydrolysis with orange peel acetylesterase, fluorescence/FRET plate reading; assay type: biochemical
Protocol: (§1) Ninety-six well microtiter plates were prepared containing duplicate samples, each sample containing 4-(5-chloro-6-hydroxycoumarinamido)butyl-5-carboxamidofluorescein diacetate (“Compound 11”, 2 mM, 2 μL) in DMSO with phosphate buffered saline (PBS, 200 μL, pH 7.0). To each well was added orange peel acetylesterase (OPAE, Sigma, St. Louis, Mo., 5 μL, 39 U/mL) as a suspension in (NH4)2SO4 (2.5 M) and sodium oxalate (0.1 M). A set of control samples was prepared in which the OPAE was replaced with PBS (no enzyme). […] The plate was read prior to OPAE addition, at time 0, and at 5, 10, 30, 60, and 150 minutes after addition. Each reading was taken at three wavelength pairs using a Molecular Devices fmax fluorescent plate reader: excite 485/emission 530 (to measure fluorescein fluorescence); excite 350/emission 530 (to measure FRET fluorescence); and excite […] (to measure coumarin fluorescence).
A control set of experiments was preformed as above, but substituting a mixture of equal molar amounts of 5-carboxyfluorescein diacetate (5-CFDA, Calbiochem) and 6-chloro-7-hydroxycoumarin methyl ester. This mixture was non-fluorescent at 530 nm prior to OPAE addition and was fluorescent at 460 nm. […] Furthermore, in this unlinked mixture case, the ratio of 530 nm to 460 nm only changed from 0.13 to 0.7; in contrast to the ratio change for the compound above, from 0.13 to 13.5.

[2] = control samples with OPAE replaced by PBS (no enzyme), non-enzymatic hydrolysis; assay type: physicochemical; conditions: PBS pH 7.0, no enzyme
Protocol: as §1

T1 sequence (P05804 whole entry): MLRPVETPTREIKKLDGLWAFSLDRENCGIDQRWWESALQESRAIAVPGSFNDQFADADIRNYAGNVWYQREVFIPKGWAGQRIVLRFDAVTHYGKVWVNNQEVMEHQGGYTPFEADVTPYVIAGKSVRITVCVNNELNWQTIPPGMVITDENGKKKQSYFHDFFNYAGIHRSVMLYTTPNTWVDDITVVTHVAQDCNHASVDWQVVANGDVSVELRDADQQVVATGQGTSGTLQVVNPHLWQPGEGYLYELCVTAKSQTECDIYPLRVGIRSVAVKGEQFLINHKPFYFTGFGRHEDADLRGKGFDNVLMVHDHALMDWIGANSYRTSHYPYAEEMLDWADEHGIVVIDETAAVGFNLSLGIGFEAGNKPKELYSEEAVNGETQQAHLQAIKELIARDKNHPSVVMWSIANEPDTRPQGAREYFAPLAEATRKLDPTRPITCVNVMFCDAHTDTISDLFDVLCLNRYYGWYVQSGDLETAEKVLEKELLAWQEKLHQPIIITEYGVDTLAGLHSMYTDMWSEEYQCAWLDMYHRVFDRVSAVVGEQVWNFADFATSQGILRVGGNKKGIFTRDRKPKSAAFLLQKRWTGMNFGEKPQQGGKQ

Row | Structure (SMILES) | cleavage of the substrate by β-glucuronidase (β-glucuronidase (GUS); 72 Units GUS, 50 mM Hepes pH 7.0) | dynamic range of emission ratio 450 nm/515 nm (β-glucuronidase (GUS); excitation at 350 nm and 488 nm, respectively) | dynamic range of emission ratio 450/515 (β-glucuronidase (GUS); excitation at 406 nm and 488 nm) | quenching of the coumarin moiety fluorescence in the completely cleaved product (β-glucuronidase (GUS); scan D (excitation 406 nm), 60 min. versus 0 min. time point) | ratio of 530 nm to 460 nm emission, end of change ([1]; after OPAE hydrolysis (0.94 U/mL, read up to 150 minutes), excitation 350 nm, PBS pH 7.0) | change of coumarin fluorescence (460 nm) after OPAE addition ([1]; in the presence of OPAE) | ratio of 530 nm to 460 nm emission, start of change ([1]; prior to OPAE hydrolysis, excitation 350 nm, PBS pH 7.0) | non-enzymatic hydrolysis [2]
1 | O=C(O)CCC(NC(=O)Nc1ccc2c(c1)C(=O)OC21c2ccc(OC3OC(C(=O)O)C(O)C(O)C3O)cc2Oc2cc(OC3OC(C(=O)O)C(O)C(O)C3O)ccc21)C(=O)NCCCCNC(=O)c1cc2cc(Cl)c(O)cc2oc1=O (centres unmarked) [Compound 7CC-FDG] | can be cleaved by β-glucuronidase readily | about 23 fold | about 50 fold | more than 50% |  |  |  | 
2 | CC(=O)Oc1ccc2c(c1)Oc1cc(OC(C)=O)ccc1C21OC(=O)c2cc(C(=O)NCCCCNC(=O)c3cc4c(Cl)c(O)ccc4oc3=O)ccc21 [Compound 11, 4-(5-chloro-6-hydroxycoumarinamido)butyl-5-carboxamidofluorescein diacetate] |  |  |  |  | 13.5 | decrease in fluorescence | 0.13 | very low rates of non-enzymatic hydrolysis
